Results as given in US7595400B2, “Process for the preparation of hexacyclic compounds” (Chugai Seiyaku Kabushiki Kaisha, priority 2003, dated 2009).

Assays:
[1] = converted to the inactive carboxylate form; cited from earlier work
DLD-1 (CRC) = assay: Anti-proliferative activity assay (WST-8), DLD-1; assay type: cell-based, human; details: DLD-1 colorectal cancer cells, 4 days incubation
Experimental: (§1) The Antiproliferative activity assay was carried out as follows. A single suspension of tumor cells was inoculated to the serially diluted 96-well microtestplate. Then the testplate was incubated in the 5% CO2 ambience at 37° C. for 4 days (2-3×10^3 cells/well). The degree of cell growth in a monolayer was measured by using WST-8 (Dojindo, Japan). IC50 values of drugs against tumor cells were calculated as the concentration of drug yielding 50% OD of the control growth. The IC50 value measures the drug concentration for 50% of the growth of tumor cells in vitro as compared to the control.
(§2) Anti-tumor activities of hexacyclic compounds of formula [1] against in vitro growth of human tumor cell lines, HCT116 and DLD-1 of colorectal cancer (CRC) and QG56 and NCI-H460 of non small cell lung cancer (NSCLC) are shown in Table 1. These cell lines are commercially available via the American Type Culture Collection (ATTC).

HCT116 (CRC) = assay: Anti-proliferative activity assay (WST-8), HCT116; assay type: cell-based, human; details: HCT116 colorectal cancer cells, 4 days incubation
Experimental: as §1, §2

QG56 (NSCLC) = assay: Anti-proliferative activity assay (WST-8), QG56; assay type: cell-based, human; details: QG56 non small cell lung cancer cells, 4 days incubation
Experimental: as §1, §2

NCI-H460 (NSCLC) = assay: Anti-proliferative activity assay (WST-8), NCI-H460; assay type: cell-based, human; details: NCI-H460 non small cell lung cancer cells, 4 days incubation
Experimental: as §1, §2

| Structure (SMILES) | half-life in plasma [1] | IC50 (DLD-1 (CRC)) | IC50 (HCT116 (CRC)) | IC50 (QG56 (NSCLC)) | IC50 (NCI-H460 (NSCLC)) |
| --- | --- | --- | --- | --- | --- |
| CC[C@@]1(O)C(=O)OCc2c1cc1n(c2=O)Cc2cc3ccccc3nc2-1 [camptothecin] | less than 30 min | – | – | – | – |
| CCc1c2c(nc3ccc(O)cc13)-c1cc3c(c(=O)n1C2)COC(=O)[C@]3(O)CC [SN-38, 7-ethyl-10-hydroxycamptothecin] | – | 53 nM | 6.9 nM | 27 nM | 21 nM |
